Values after ≈ are worked out from the molar mass of the structure shown. Where two headings read alike, the source gives them in different places. Where only a bound is given, the exact number is not on record here.

In data set [1] the test system is reference Gram-positive bacteria. Nature of the data set: Broth microdilution, summary over the Gram-positive panel. Type of data set: cell-based. From the text: In vitro antimicrobial activity assays - Methodology
The examined compounds 1 - 24 were screened in vitro for antibacterial and antifungal activities using the broth microdilution method according to procedure reported earlier by our research group and European Committee on Antimicrobial Susceptibility Testing (EUCAST) and Clinical and Laboratory Standards Institute (CLSI) guidelines against a panel of reference and clinical or saprophytic strains of microorganisms, in-cluding Gram-positive bacteria, Staphylococcus aureus ATCC 43300 (Methicillin Resistant S. aureus – MRSA), Staphylococcus aureus ATCC 29213 (Methicillin Susceptible S. aureus – MSSA), Staphylococcus epidermidis ATCC 12228, Enterococcus faecalis ATCC 29212, Micro-coccus luteus ATCC 10240, Bacillus subtilis ATCC 6633 and Bacillus cereus ATCC 10876), Gram-negative bacteria (Bordetella bronchiseptica ATCC 4617, Escherichia coli ATCC 25922, Klebsiella pneumoniae ATCC 13883, Proteus mirabilis ATCC 12453, Salmonella typhimurium ATCC 14028 and Pseudomonas aeruginosa ATCC 9027) and fungi belonging to yeasts (Can-dida albicans ATCC 10231, Candida albicans ATCC 2091, Candida parapsilosis ATCC 22019, Candida glabrata ATCC 90030 and Candida krusei ATCC 14243). The microorganisms be-longing to ATCC came from American Type Culture Collection, routinely used for the evaluation of antimicrobials. […]
Samples containing examined compounds were dissolved in dimethyl sulfoxide (DMSO). […]
Subsequently, the MIC (Minimal Inhibitory Concentration) of the compounds was ex-amined by the microdilution broth method, using their two-fold dilutions in Mueller- […]
Hinton broth or (for bacteria) and RPMI 1640 broth with MOPS (for fungi) prepared in 96-well polystyrene plates. Final concentrations of the compounds ranged from 1000 to 0.488 µg/ml. Microbial suspensions were prepared in 0.85% NaCl with an optical density of 0.5 McFarland standard. Next each bacterial or fungal suspension was added per each well containing broth and various concentrations of the examined compounds. After incuba-
For orientation: In broth dilution the organism is exposed to a series of concentrations in liquid medium.

The test system of the next data set is HEK-293. Nature of the data set: MTT cytotoxicity assay, reference line. Type of data set: cell-based. The settings on record: Homo sapiens, HEK293, 24 h incubation, non-tumor reference line. As for the experimental part:
The in vitro studies were performed on the reference line HEK-293 (human embryonic kidney cells, ATCC® CRL-1573™) and […] human cancer cell lines: 769-P (adenocarcinoma, renal cells, ATCC® CRL-1933™) and HepG2 (carcinoma, hepatocellular, ATCC® HB-8065™), H1563 (adenocarcinoma, non-smallcell lung cancer, ATCC® CRL-5875™), LN-229 (glioblastoma, ATCC® CRL-2611™). Cells from the 769-P and H1563 cell lines were cultured in RPMI-1640 growth medium (PAN Biotech GmbH, Aidenbach, Bayern, Germany), cells from the HEK-293 and HepG2 cell lines were cultured in EMEM growth medium (PAN Biotech GmbH, Aidenbach, Bayern, Germany), and cells from the LN-229 cell line were cultured in DMEM growth medium (PAN Biotech GmbH, Aidenbach, Bayern, Germany) in sterile 75 cm^2 culture phalcones. Fetal bovine serum (PAN Biotech GmbH, Aidenbach, Bayern, Germany) at 10% of growth medium and antibiotics (Sigma-Aldrich, Poland) (2.5 µg/mL amphotericin B, 100 µg/mL penicillin, and 100 µg/mL streptomycin) were added to all media. Cells were cultured at 37 °C in an incubator with 5% CO2 flow until a cell layer was formed. Following this, the medium was removed, and the cells were washed with 0.25% trypsin solution with 2.21 mM EDTA (Corning Incorporated, Corning, NY, USA) in order to completely remove fetal bovine serum containing trypsin inhibitor. Finally, 6 mL of complete growth medium was added, and the cells were aspirated by gentle pipetting.
The determination of inhibitory concentration (IC50) in the HEK-293, 769-P, HepG2, H1563, and LN-229 cell cultures for selected hydrazide–hydrazones was performed using the MTT assay procedure. This test was performed according to the MTT Assay ECVAM n°17 protocol manual prepared by the European Centre for the Validation of Alternative Methods (ECVAM), an entity that aims to reduce in vivo testing in favor of in vitro and in silico methods. To 96-well sterile plates, 100 μL of cell suspensions, prepared in the appropriate medium at a concentration of 3 × 10^5 cells/mL, was added using a multichannel pipette. To achieve cell adhesion to the bottom of the plates, cells were incubated for 24 h at 37 °C with 5% CO2 flow and 90% humidity. […] After this time, all medium was removed, 100 μL of DMSO (Corning Incorporated, Corning, NY, USA) was added to each well, and absorbance measurements were performed at 550 nm using a Power Weave xs spectrophotometric microplate reader (BioTek, Winooski, VT, USA). The decrease in absorbance is equivalent to the decrease in MTT formazan production, which is due to the decrease in mitochondrial dehydrogenase activity and indicates a cytotoxic effect from the tested substances. Cell viability is expressed as a percentage as the ratio of the absorbance of test substance-treated cells to the untreated cells. […]

On to `CCCc1ccc(/C=N/NC(=O)c2ccc(O)cc2O)cc1` [Compound 13, 2,4-dihydroxy-N-[(4-propylphenyl)methylidene]benzohydrazide], for which the melting point came out at 197 °C. The compound further displayed an MBC in data set [1] above 1000 µg/mL. Besides, the MIC in data set [1] (read-out: MIC) is 1000 µg/mL (≈ 3350 µM).
The compound `O=C(N/N=C/c1cc(I)cc(I)c1O)c1ccc(O)cc1O` [Compound 18, 2,4-dihydroxy-N-[(2-hydroxy-3,5-diiodophenyl)methylidene]benzohydrazide] returned a melting point of 220 °C. Also, the MBC in data set [1] fell in the range of 1.95 to 31.2 µg/mL (≈ 3.72 to 59.6 µM). Further, in data set [1] (read-out: MIC), the minimum inhibitory concentration (MIC) lay within 0.48 to 7.81 µg/mL (≈ 0.916 to 14.9 µM).
`O=C(N/N=C/c1ccccc1[N+](=O)[O-])c1ccc(O)cc1O` [Compound 19, 2,4-dihydroxy-N-[(2-nitrophenyl)methylidene]benzohydrazide] displayed an MIC in data set [1] of 250 to 1000 µg/mL (≈ 830 to 3320 µM).
The compound `O=C(N/N=C/c1cccc([N+](=O)[O-])c1)c1ccc(O)cc1O` [Compound 20, 2,4-dihydroxy-N-[(3-nitrophenyl)methylidene]benzohydrazide] had an IC50 in the data set with HEK-293 of 13.4 mM.
For the compound `O=C(N/N=C/c1ccc([N+](=O)[O-])cc1)c1ccc(O)cc1O` [Compound 21, 2,4-dihydroxy-N-[(4-nitrophenyl)methylidene]benzohydrazide], the MIC in data set [1] fell in the range of 500 to 1000 µg/mL (≈ 1660 to 3320 µM).
In turn, `O=C(N/N=C/c1ccccc1Cl)c1ccc(O)cc1O` [Compound 22, N-[(2-chlorophenyl)methylidene]-2,4-dihydroxybenzohydrazide] gave a half-maximal inhibitory concentration (IC50) with HEK-293 of 0.315 mM.
`O=C(N/N=C/c1ccccc1Br)c1ccc(O)cc1O` [Compound 23, N-[(2-bromophenyl)methylidene]-2,4-dihydroxybenzohydrazide]: the 50% inhibitory concentration (IC50) in the data set on HEK-293 was found to be 91.8 mM.
Same read-out and setting: with `O=C(N/N=C/c1ccccc1F)c1ccc(O)cc1O` [Compound 24, N-[(2-fluorophenyl)methylidene]-2,4-dihydroxybenzohydrazide] the figure was 0.387 mM.

For orientation: MBC means the lowest tested concentration that kills the bacteria rather than only halting them. In general, MIC refers to the least concentration at which growth counts as inhibited. What is called melting point is the temperature, or range, at which the solid turns liquid. As a reminder, the IC50 is the concentration that gives 50% inhibition. Low values mean inhibition by little substance, high ones a need for much substance.

These data come from paper PMC10743905, “Design, Synthesis, and In Vitro and In Vivo Bioactivity Studies of Hydrazide–Hydrazones of 2,4-Dihydroxybenzoic Acid” (International Journal of Molecular Sciences, 2023).
